Data taken from patent US10472341B2, “Bicyclic tetrahydrothiazepine derivatives useful for the treatment of neoplastic and/or infectious diseases” (APEIRON BIOLOGICS AG, priority 2015, dated 2019).
Values joined by “and” are separate entries in the source; they are usually repeats but may differ in a detail not shown here. Equal values may be shown once. Where a name gives a salt, the structure may show the parent alone. Read-outs that look alike come from different tables or passages of the source.

Assays:
CD8 T cells = assay: CD69 expression on aCD3/aCD28 stimulated isolated human CD8 T cells (flow cytometry); assay type: cell-based; details: T-cell, 24 h after TCR stimulation, read-out: Activity Class CD69 (CD8)
Description: (§1) Isolated T cells were plated in Xvivo medium at 1.5*10 ^5 cells per in 96 well culture plates and TCR-stimulated with anti-CD3/28 mAbs in the presence of compound as indicated. Cytokine production was determined at 24 h or 48 h following TCR stimulation in cell culture supernatants using commercially available ELISA kits (BD and eBioscience) as recommended by the manufacturer. T cell proliferation and CD25 expression (CD25-PC5 reagent purchased from Beckman Coulter) was determined by flow cytometry (Beckman-Coulter FC500) and analysed with Kaluza Software. For measurement of CD69 expression, isolated CD4 and CD8 T cells were plated in Xvivo medium at […] per in 96 well culture plates and TCR-stimulated with anti-CD3/28 mAbs in the presence of compound. CD69 expression was determined at 24 h following TCR stimulation by flow cytometry (CD4eF450, CD8APCeF780 and CD69-PC7 reagent purchased from eBioscience) and analysed with Kaluza Software.
(§2) For measurement of CD69 expression, isolated CD4 and CD8 T cells were plated in Xvivo medium at 80000 cells per in 96 well culture plates and TCR-stimulated with anti-CD3/28 mAbs in the presence of compound. CD69 expression was determined at 24 h following TCR stimulation by flow cytometry (CD4eF450, CD8APCeF780 and CD69-PC7 reagent purchased from eBioscience) and analysed with Kaluza Software.

[1] = test system: aCD3/aCD28-stimulated human PBMCs; assay: Cytokine production in aCD3/aCD28 stimulated human PBMCs; assay type: cell-based; details: PBMC, 18 h
Summary of the method: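 Ficoll-isolated human PBMCs at 1e6 cells/mL in X-Vivo15, stimulated with soluble anti-CD3/CD28 (OKT3 and 28.2, 1 μg/mL each) plus compound for 18 h at 37° C. Supernatant cytokines quantified by MSD or HTRF.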

CD4 T cells = assay: CD69 expression on aCD3/aCD28 stimulated isolated human CD4 T cells (flow cytometry); assay type: cell-based; details: 24 h after TCR stimulation, read-out: Activity Class CD69 (CD4)
Description: as §1, §2

[2] = test system: aCD3/aCD28-stimulated human CD4+-T-cells; assay: IL-2 production and activation markers in aCD3/aCD28 stimulated isolated human CD4+-T-cells; assay type: cell-based; details: IL-2 production at 3 μM compound
Summary of the method: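 CD4+ T cells isolated from buffy-coat PBMCs by microbeads were plated in Xvivo medium (1.5*10^5 cells/well) and stimulated with anti-CD3/28 mAbs plus compound. IL-2 measured by ELISA in supernatants at 24 h or 48 h; CD25 and proliferation by flow cytometry, CD69 at 24 h. Activity classes based on IL-2 at 3 μM compound.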

[3] = test system: CD8 T cells & M21 tumor cells; assay: CD8 T cells from M21-prestimulated PBMCs restimulated with M21 tumor cells, with or without PD-1 blockade; assay type: cell-based, human; details: for Average Granzyme B / Average IFN-g / Average IL-2 / Average Number of living M21 tumor cells: no cpd
Description: For experiments investigating effects of PD-1 blockade, PBMCs were preincubated with 1 h UV-irradiated M21 tumor cells (50000 tumor cells per 1 Mill. PBMCs) for 14 days. […] Compounds and anti-PD-1 antibody (Nivolumab) or control antibody without direct effects on CD8 T cells (Ipilimumab) were added where indicated.
[…] Example 107, no antibody (no Ig), anti-PD-1 antibody (Nivolumab) or control antibody without direct effects on CD8 T cells (Ipilimumab) were included where indicated.

[4] = enhancement of IFN-γ production, read-out: Activity Class IFN-γ
[5] = enhancement of IL-2 production, read-out: Activity Class IL-2

EC50 (CD8 T cells) | EC50 (CD4 T cells) | Molecule | EC50 [1, 4] | EC50 [1, 5] | Activity Class CD4+ [2] | also measured
1.58 to 5.01 µM | 1.58 to 5.01 µM | Cl.N[C@H]1CS(=O)(=O)c2cc(F)c(C(=O)N[C@@H]3CC3(F)F)cc2N(Cc2ccc(Cl)cc2)C1=O (single isomer, unassigned) [Example 106, hydrochloride] | 1.58 to 5.01 µM | 1.58 to 5.01 µM |  | 
< 1.58 µM | < 1.58 µM | Cl.N[C@H]1CS(=O)(=O)c2cc(F)c(C(=O)N[C@H]3CC3(F)F)cc2N(Cc2ccc(Cl)cc2)C1=O (single isomer, unassigned) [Example 107, hydrochloride] | < 1.58 µM | < 1.58 µM |  | 
1.58 to 5.01 µM | 1.58 to 5.01 µM | N[C@H]1C[S@+]([O-])c2cc(F)c(C(=O)NCCCC(F)(F)F)cc2N(Cc2ccc(Cl)cc2)C1=O (single isomer, unassigned) [Example 122, hydrochloride] | < 1.58 µM | 1.58 to 5.01 µM |  | 
> 5.01 µM | > 5.01 µM | N[C@H]1C[S@@+]([O-])c2cc(F)c(C(=O)NCCCC(F)(F)F)cc2N(Cc2ccc(Cl)cc2)C1=O (single isomer, unassigned) [Example 123, hydrochloride] | < 1.58 µM | 1.58 to 5.01 µM |  | 
 |  | C[C@@H]1[C@H](N)C(=O)N(Cc2ccc(Cl)cc2)c2cc(C(=O)NC3CC3(F)F)ccc2S1(=O)=O.Cl (stereo partly drawn) [Example 108, (2R,3R)-3-amino-5-[(4-chlorophenyl)methyl]-N-(2,2-difluorocyclopropyl)-2-methyl-1,1,4-trioxo-2,3,4,5-tetrahydro-1λ^6,5-benzothiazepine-7-carboxamide hydrochloride] | > 5.01 µM | > 5.01 µM | C (IL-2 production at 3 μM compound concentration between 2-fold increase as compared to mean IL-2 production of stimulated cells in the absence of compounds and <2 ng/mL) | 
 |  | CCCCCCCCCCCCCCCCNC(=O)c1cc2c(cc1F)S(=O)(=O)C[C@H](N)C(=O)N2Cc1ccc(Cl)cc1.Cl [Example 109, (3R)-3-amino-5-[(4-chlorophenyl)methyl]-8-fluoro-N-hexadecyl-1,1,4-trioxo-2,3,4,5-tetrahydro-1λ^6,5-benzothiazepine-7-carboxamide hydrochloride] | < 1.58 µM | < 1.58 µM | A (IL-2 production at 3 μM compound concentration >10 ng/mL) | 
 |  | Cl.N[C@H]1CS(=O)(=O)c2cc(F)c(C(=O)NCC3CC3)cc2N(Cc2ccc(Cl)cc2)C1=O [Example 110, (3R)-3-amino-5-[(4-chlorophenyl)methyl]-N-(cyclopropylmethyl)-8-fluoro-1,1,4-trioxo-2,3,4,5-tetrahydro-1λ^6,5-benzothiazepine-7-carboxamide hydrochloride] | < 1.58 µM | < 1.58 µM | A (IL-2 production at 3 μM compound concentration >10 ng/mL) | 
 |  | C[C@@H]1[C@H](N)C(=O)N(Cc2ccc(Cl)cc2)c2cc(C(=O)NCCCC(F)(F)F)ccc2S1(=O)=O.Cl [Example 111, (2R,3R)-3-amino-5-[(4-chlorophenyl)methyl]-2-methyl-1,1,4-trioxo-N-(4,4,4-trifluorobutyl)-2,3,4,5-tetrahydro-1λ^6,5-benzothiazepine-7-carboxamide hydrochloride] | 1.58 to 5.01 µM | 1.58 to 5.01 µM | B (IL-2 production at 3 μM compound concentration between 2-10 ng/mL) | 
 |  | Cl.N[C@H]1CSc2cc(F)c(C(=O)NCc3ccc(F)cc3)cc2N(Cc2nnc(C3CC3)s2)C1=O [Example 113, (3R)-3-amino-5-[(5-cyclopropyl-1,3,4-thiadiazol-2-yl)methyl]-8-fluoro-N-[(4-fluorophenyl)methyl]-4-oxo-2,3,4,5-tetrahydro-1,5-benzothiazepine-7-carboxamide hydrochloride] | 1.58 to 5.01 µM | > 5.01 µM | C (IL-2 production at 3 μM compound concentration between 2-fold increase as compared to mean IL-2 production of stimulated cells in the absence of compounds and <2 ng/mL) | 
 |  | CCCCNC(=O)c1cc2c(cc1N(C)C)S(=O)(=O)C[C@H](N)C(=O)N2Cc1ccc(Cl)cc1 [Example 114, (3R)-3-amino-N-butyl-5-[(4-chlorophenyl)methyl]-8-(dimethylamino)-1,1,4-trioxo-2,3,4,5-tetrahydro-1 λ^6,5-benzothiazepine-7-carboxamide hydrochloride] | 1.58 to 5.01 µM | > 5.01 µM | C (IL-2 production at 3 μM compound concentration between 2-fold increase as compared to mean IL-2 production of stimulated cells in the absence of compounds and <2 ng/mL) | 
> 5.01 µM | > 5.01 µM | N#Cc1ccc(CN2C(=O)[C@@H](N)CS(=O)(=O)c3cc(F)c(C(=O)NC4CC4(F)F)cc32)cc1 (stereo partly drawn) [Example 124, (3R)-3-amino-5-[(4-cyanophenyl)methyl]-N-(2,2-difluorocyclopropyl)-8-fluoro-1,1,4-trioxo-2,3,4,5-tetrahydro-1λ^6,5-benzothiazepine-7-carboxamide hydrochloride] | 1.58 to 5.01 µM | > 5.01 µM |  | 
1.58 to 5.01 µM | 1.58 to 5.01 µM | N#Cc1ccc(CN2C(=O)[C@@H](N)CS(=O)(=O)c3cc(F)c(C(=O)NCCCC(F)(F)F)cc32)cc1 [Example 125, (3R)-3-amino-5-[(4-cyanophenyl)methyl]-8-fluoro-1,1,4-trioxo-N-(4,4,4-trifluorobutyl)-2,3,4,5-tetrahydro-1λ^6,5-benzothiazepine-7-carboxamide hydrochloride] | < 1.58 µM | 1.58 to 5.01 µM |  | 
< 1.58 µM | < 1.58 µM | N[C@H]1CS(=O)(=O)c2cc(F)c(C(=O)NC3CCC(F)(F)CC3)cc2N(Cc2ccc(Cl)cc2)C1=O [Example 126, (3R)-3-amino-5-[(4-chlorophenyl)methyl]-N-(4,4-difluorocyclohexyl)-8-fluoro-1,1,4-trioxo-2,3,4,5-tetrahydro-1λ^6,5-benzothiazepine-7-carboxamide hydrochloride] | < 1.58 µM | < 1.58 µM |  | 
< 1.58 µM | < 1.58 µM | N[C@H]1CS(=O)(=O)c2cc(F)c(C(=O)NC3CC3C(F)(F)F)cc2N(Cc2ccc(Cl)cc2)C1=O (stereo partly drawn) [Example 127, (3R)-3-amino-5-[(4-chlorophenyl)methyl]-8-fluoro-1,1,4-trioxo-N-[2-(trifluoromethyl)cyclopropyl]-2,3,4,5-tetrahydro-1λ^6,5-benzothiazepine-7-carboxamide hydrochloride] | < 1.58 µM | 1.58 to 5.01 µM |  | 
1.58 to 5.01 µM | > 5.01 µM | N[C@H]1CSc2cc(F)c(C(=O)NC3CC(F)(F)C3)cc2N(Cc2ccc(Cl)cc2)C1=O [Example 128, (3R)-3-amino-5-[(4-chlorophenyl)methyl]-N-(3,3-difluorocyclobutyl)-8-fluoro-4-oxo-2,3,4,5-tetrahydro-1,5-benzothiazepine-7-carboxamide hydrochloride] | 1.58 to 5.01 µM | 1.58 to 5.01 µM |  | 
 |  | CCCCNC(=O)c1cc2c(cn1)S(=O)(=O)C[C@H](N)C(=O)N2Cc1ccc(Cl)cc1 [Example 183, (3R)-3-amino-N-butyl-1-[(4-chlorophenyl)methyl]-2,5,5-trioxo-1H,2H,3H,4H-5λ^6-pyrido[3,4-b][1,4]thiazepine-8-carboxamide hydrochloride] | > 5.01 µM | > 5.01 µM | C (IL-2 production at 3 μM compound concentration between 2-fold increase as compared to mean IL-2 production of stimulated cells in the absence of compounds and <2 ng/mL) | 
 |  | Ipilimumab |  |  |  | Average Granzyme B ([3]; Ipilimumab alone): 0.612 ng/mL; Average IFN-g ([3]; Ipilimumab alone): 0.000 ng/mL; Average IL-2 ([3]; Ipilimumab alone): 0.024 ng/mL; Average Number of living M21 tumor cells ([3]; Ipilimumab alone): 22648 and 25130; synergistic enhancement of cytokine production with example 107 ([3]; control antibody not targeting CD8 T cells): No such effects were observed
 |  | Nivolumab |  |  |  | reduction in viable tumor cells ([3]; Nivolumab alone): not able to cause a significant reduction in viable tumor cells; Average Granzyme B ([3]; Nivolumab alone): 1.758 ng/mL; Average IFN-g ([3]; Nivolumab alone): 0.014 ng/mL; Average IL-2 ([3]; Nivolumab alone): 0.046 ng/mL; Average Number of living M21 tumor cells ([3]; Nivolumab alone): 20344 and 22655; cytokine secretion ([3]; PD-1 blockade alone, CD8 T cells & M21 (expresses PD-L1)): also enhanced cytokine secretion
